From patent US7528149B2 (Janssen Pharmaceutica N.V., priority 1999, dated 2009) come the findings set out here.

Like-named read-outs stand apart in the source and are kept apart here. A value given as a limit tells only on which side of the number the result lay.

What all share (assay type): cell-based
The nature of series [1]: Cytotoxicity in mock-infected HeLa cells (tetrazolium-based colorimetric assay). The settings on record: human. The text has this: (§1) The percent protection against cytopathology caused by viruses (antiviral activity or IC50) achieved by tested compounds and their cytotoxicity (CC50) were both calculated from dose-response curves. The selectivity of the antiviral effect is represented by the selectivity index (SI), calculated by dividing the CC50 (cytotoxic dose for 50% of the cells) by the IC50 (antiviral activity for 50% of the cells).
(§2) Automated tetrazolium-based colorimetric assays were used for determination of IC50 and CC50 of test compounds. Flat-bottom, 96-well plastic microtiter trays were filled with 180 μl of Eagle's Basal Medium, supplemented with 5% FCS (0% for FLU) and mM Hepes buffer. Subsequently, stock solutions (7.8× final test concentration) of compounds were added in 45 μl volumes to a series of triplicate wells so as to allow simultaneous evaluation of their effects on virus- and mock-infected cells. Five five-fold dilutions were made directly in the microtiter trays using a robot system. Untreated virus controls, and HeLa cell controls were included in each test. Approximately 100 TCID50 of Respiratory Syncytial Virus was added to two of the three rows in a volume of 50 μl. The same volume of medium was added to the third row to measure the cytotoxicity of the compounds at the same concentrations as those used to measure the antiviral activity. After two hours of incubation, a suspension (4×10^5 cells/ml) of HeLa cells was added to all wells in a volume of 50 μl. The cultures were incubated at 37° C. in a 5% CO2 atmosphere. Seven days after infection the cytotoxicity and the antiviral activity was examined spectrophotometrically. To each well of the microtiter tray, 25 μl of a solution of MTT (3-(4,5-dimethylthiazol-2-yl)-2,5-diphenyltetrazolium bromide) was added. The trays were further incubated at 37° C. for 2 hours, after which the medium was removed from each cup. Solubilization of the formazan crystals was achieved by adding 100 μl 2-propanol. Complete dissolution of the formazan crystals were obtained after the trays have been placed on a plate shaker for 10 min. Finally, the absorbances were read in an eight-channel computer-controlled photometer (Multiskan MCC, Flow Laboratories) at two wavelengths (540 and 690 nm). The absorbance measured at 690 nm was automatically subtracted from the absorbance at 540 nm, so as to eliminate the effects of non-specific absorption.

Series [2] relates to Respiratory Syncytial Virus. The series is described as follows: In vitro screening for activity against Respiratory Syncytial Virus (tetrazolium-based colorimetric assay, protection against cytopathology in HeLa cells). The settings on record: for SI (selectivity index, CC50 divided by IC50): CC50 (HeLa) / IC50 (RSV); for IC50: read-out: IC50 (antiviral activity).
Excerpt: as §1, §2

A further series concerns HeLa cells. As to the kind of experiment: Cytotoxicity in mock-infected HeLa cells (tetrazolium-based colorimetric assay). Conditions: human, 7 days.
Excerpt: as §1, §2

Where [3] appears, read: CC50 (cytotoxic dose for 50% of the cells).
The mark [4] stands for this setting: mock-infected HeLa cells, MTT, seven days, read-out: CC50 (cytotoxic dose for 50% of the cells).
Where [5] appears, read: human respiratory syncytial virus, HeLa, 168 h.

For `CCOC(c1cccc(C)n1)n1c(NC2CCN(CC(N)C(C)C)CC2)nc2ccccc21` [Compound 67, [(A)(S)]-N-[1-(2-amino-3-methylbutyl)-4-piperidinyl]-1-[ethoxy(6-methyl-2-pyridinyl)methyl]-1H-benzimidazol-2-amine monohydrate], half-maximal cytotoxicity in series [1] (setting [3]) (CC50 at 7 days) was put at 63400 nM. Besides, the “SI (selectivity index, CC50 divided by IC50)” value in series [2] (monohydrate) came to 15849. Also, the IC50 in series [2] (RSV approx. 100 TCID50, HeLa cells, MTT read seven days after infection, monohydrate) turned out to be 4 nM.

Turning to `CCOC(c1cccc(C)n1)n1c(NC2CCN(CC(N)C(C)C)CC2)nc2ccccc21` (stereo not drawn) [Compound 58], the CC50 with HeLa cells came out at 79400 nM. The “SI (selectivity index, CC50 divided by IC50)” value in series [2] is reported as 1585. For the same molecule, in series [2] (RSV approx. 100 TCID50, HeLa cells, MTT read seven days after infection), the IC50 is 50.1 nM.

Take `CCOC(c1nc(C)ccc1OCc1ccccc1)n1c(NC2CCN(CCN)CC2)nc2ccccc21.Cl.Cl.Cl.O.O` (racemic) [Compound 11, (±)-N-[1-(2-aminoethyl)-4-piperidinyl]-1-[ethoxy[6-methyl-3-(phenylmethoxy)-2-pyridinyl]-methyl]-1H-benzimidazol-2-amine trihydrochloride dihydrate]: in series [1] (setting [4]), the cytotoxic concentration (CC50) at 7 days was found to be 9950 nM. Also, in series [2], the “SI (selectivity index, CC50 divided by IC50)” value was 79. Moreover, the concentration for half-maximal inhibition (IC50) in series [2] (setting [5]) is 126 nM.

Molecule `CCOC(c1cccc(Br)n1)n1c(NC2CCN(CC(N)C(C)C)CC2)nc2ccccc21` (racemic) [Compound 10, (±)-N-[1-(2-amino-3-methylbutyl)-4-piperidinyl]-1-[(6-bromo-2-pyridinyl)-ethoxymethyl]-1H-benzimidazol-2-amine] gave a 50% cytotoxic concentration (CC50) at 7 days in series [1] (setting [3]) of 37900 nM. The “SI (selectivity index, CC50 divided by IC50)” value in series [2] amounted to 63096. Also, the 50% inhibitory concentration (IC50) in series [2] (human respiratory syncytial virus, HeLa, 168 h, RSV approx. 100 TCID50, HeLa cells, MTT read seven days after infection) was found to be 0.6 nM.

As to `CCOC(c1cccc(Br)n1)n1c(NC2CCN(CC(N)C(C)C)CC2)nc2c(C)cccc21` (racemic) [Compound 87, monohydrate], the CC50 at 7 days in series [1] (setting [4]) amounted to 10100 nM. Moreover, the “SI (selectivity index, CC50 divided by IC50)” value in series [2] is listed as 31623. In series [2] (setting [5]), the IC50 was found to be 0.32 nM.

`COCCOC(c1cccc(C)n1)n1c(NC2CCN(CC(N)C(C)C)CC2)nc2c(C)cc(Cl)cc21.Cl.Cl.Cl.O.O.O` (stereo not drawn) [Compound 88, N-[1-(2-amino-3-methylbutyl)-4-piperidinyl]-6-chloro-1-[(2-methoxyethoxy)(6-methyl-2-pyridinyl)methyl]-4-methyl-1H-benzimidazol-2-amine trihydrochloride trihydrate]: in series [1] (setting [4]), the CC50 at 7 days worked out at 20000 nM. In series [2], the “SI (selectivity index, CC50 divided by IC50)” value stood at 10000. For the same molecule, the half-inhibitory concentration (IC50) in series [2] (setting [5]) is 2 nM.

For the molecule `Cc1cccc(C(OCCO)n2c(NC3CCN(CCN)CC3)nc3ccccc32)n1` (racemic) [Compound 13, monohydrate], the CC50 at 7 days in series [1] (setting [4]) is > 100000 nM. For the same molecule, the “SI (selectivity index, CC50 divided by IC50)” value in series [2] is given as >7943. For the same molecule, the IC50 in series [2] (setting [5]) was found to be 12.6 nM.
